In the supplement of paper PMC11451515:

System: P12-Ichikawa
Experiment: cell viability relative to DMSO control; higher = less cytotoxic
Conditions: 48 h
Outline: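 NOMO1 or SEM cells were plated at 500 cells/well and P12-Ichikawa cells at 1000 cells/well in 1536-well plates (5 μl), after each leukemia line had been adapted for at least four passages in each medium. Pin dosing delivered library compounds in DMSO at 11 threefold concentrations, 47 μM to 0.79 nM. CellTiter-Glo One luminescence was read after 48 h at 37°C. Viability is reported as a per-plate percentage of DMSO wells, with cell-free wells as background.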

[1] = HPLM + 10% dialyzed FBS, 0.000781 µM
[2] = HPLM + 10% dialyzed FBS, 0.00234 µM
[3] = HPLM + 10% dialyzed FBS, 0.00702 µM
[4] = HPLM + 10% dialyzed FBS, 0.0211 µM
[5] = HPLM + 10% dialyzed FBS, 0.0632 µM
[6] = HPLM + 10% dialyzed FBS, 0.19 µM
[7] = HPLM + 10% dialyzed FBS, 0.569 µM
[8] = HPLM + 10% dialyzed FBS, 1.71 µM
[9] = HPLM + 10% dialyzed FBS, 5.12 µM
[10] = HPLM + 10% dialyzed FBS, 15.4 µM
[11] = HPLM + 10% dialyzed FBS, 46.1 µM
[12] = RPMI 5 mM glucose + 10% FBS, 0.000781 µM
[13] = RPMI 5 mM glucose + 10% FBS, 0.00234 µM
[14] = RPMI 5 mM glucose + 10% FBS, 0.00702 µM
[15] = RPMI 5 mM glucose + 10% FBS, 0.0211 µM
[16] = RPMI 5 mM glucose + 10% FBS, 0.0632 µM
[17] = RPMI 5 mM glucose + 10% FBS, 0.19 µM
[18] = RPMI 5 mM glucose + 10% FBS, 0.569 µM
[19] = RPMI 5 mM glucose + 10% FBS, 1.71 µM
[20] = RPMI 5 mM glucose + 10% FBS, 5.12 µM
[21] = RPMI 5 mM glucose + 10% FBS, 15.4 µM
[22] = RPMI 5 mM glucose + 10% FBS, 46.1 µM
[23] = RPMI 5 mM glucose + 10% dialyzed FBS, 0.000781 µM
[24] = RPMI 5 mM glucose + 10% dialyzed FBS, 0.00234 µM
[25] = RPMI 5 mM glucose + 10% dialyzed FBS, 0.00702 µM
[26] = RPMI 5 mM glucose + 10% dialyzed FBS, 0.0211 µM
[27] = RPMI 5 mM glucose + 10% dialyzed FBS, 0.0632 µM
[28] = RPMI 5 mM glucose + 10% dialyzed FBS, 0.19 µM
[29] = RPMI 5 mM glucose + 10% dialyzed FBS, 0.569 µM
[30] = RPMI 5 mM glucose + 10% dialyzed FBS, 1.71 µM
[31] = RPMI 5 mM glucose + 10% dialyzed FBS, 5.12 µM
[32] = RPMI 5 mM glucose + 10% dialyzed FBS, 15.4 µM
[33] = RPMI 5 mM glucose + 10% dialyzed FBS, 46.1 µM

| Compound | cell viability [1] | cell viability [2] | cell viability [3] | cell viability [4] | cell viability [5] | cell viability [6] | cell viability [7] | cell viability [8] | cell viability [9] | cell viability [10] | cell viability [11] | cell viability [12] | cell viability [13] | cell viability [14] | cell viability [15] | cell viability [16] | cell viability [17] | cell viability [18] | cell viability [19] | cell viability [20] | cell viability [21] | cell viability [22] | cell viability [23] | cell viability [24] | cell viability [25] | cell viability [26] | cell viability [27] | cell viability [28] | cell viability [29] | cell viability [30] | cell viability [31] | cell viability [32] | cell viability [33] |
| --- | --- | --- | --- | --- | --- | --- | --- | --- | --- | --- | --- | --- | --- | --- | --- | --- | --- | --- | --- | --- | --- | --- | --- | --- | --- | --- | --- | --- | --- | --- | --- | --- | --- |
| NC(=O)c1ccc(-c2nc(-c3ccc4c(c3)OCO4)c(-c3ccccn3)[nH]2)cc1 | 124% | 124% | 123% | 107% | 127% | 123% | 116% | 114% | 110% | 112% | 100% | 122% | 130% | 116% | 109% | 118% | 111% | 108% | 116% | 100% | 107% | 93.8% |  |  |  |  |  |  |  |  |  |  |  |
| C=CC(=O)Nc1cccc(Oc2nc(Nc3ccc(N4CCN(C)CC4)cc3OC)ncc2Cl)c1 | 75% | 79.3% | 78.4% | 84.9% | 84.7% | 86.3% | 83% | 79.6% | 76.5% | 70.6% | 52.2% | 68% | 76% | 76.1% | 79.5% | 80.9% | 83.7% | 80.1% | 82.1% | 66% | 58.3% | 50.3% | 73% | 89.4% | 82.8% | 79.9% | 81.6% | 80.9% | 74.6% | 83.3% | 70.6% | 64.7% | 49.5% |
| COc1ccc(C(=O)CC(=O)c2ccc(C(C)(C)C)cc2)cc1 | 105% | 112% | 113% | 110% | 120% | 116% | 119% | 113% | 118% | 108% | 97.2% | 101% | 97.6% | 104% | 106% | 116% | 111% | 103% | 109% | 112% | 106% | 90.7% | 98.1% | 107% | 111% | 112% | 110% | 119% | 117% | 113% | 120% | 110% | 91.1% |
| C=C[C@H]1CN2CCC1C[C@@H]2[C@@H](O)c1ccnc2ccccc12 (some centres not stated) | 101% | 99.5% | 95.9% | 99.6% | 100% | 92.4% | 87.7% | 93.6% | 85.8% | 90.7% | 78.2% | 93.8% | 93.4% | 99.5% | 94.7% | 103% | 90.9% | 86.4% | 92.3% | 90.8% | 83.3% | 67.8% | 101% | 89.4% | 91.7% | 96.6% | 97.2% | 92.6% | 96.5% | 81.7% | 84.5% | 81.8% | 67.9% |
| CC1=CC=C2\N=C/3N(CC[C@@]3(O)C(=O)C2=C1)C4=CC=CC=C4 | 97.2% | 98.3% | 94.9% | 94.6% | 99.3% | 88.8% | 92.1% | 95.3% | 82% | 86.6% | 89.5% | 84.8% | 82.3% | 92% | 90.2% | 92.4% | 89.2% | 89% | 90.2% | 83.8% | 86.7% | 86.9% | 95.4% | 86% | 84.1% | 83.1% | 84.5% | 81.1% | 90% | 82.1% | 81.9% | 76.4% | 78.7% |
| CC(Cc1ccc(O)c(O)c1)(NN)C(=O)O (configuration not stated) | 110% | 112% | 107% | 111% | 130% | 114% | 105% | 102% | 100% | 101% | 78.5% | 102% | 113% | 122% | 120% | 113% | 111% | 108% | 100% | 112% | 113% | 65.3% | 107% | 116% | 115% | 115% | 114% | 109% | 108% | 104% | 110% | 110% | 55.7% |
| OC1=CC2=C(C(=O)\C=C(/O2)C3=CC=CC=C3)C(=C1O)O | 114% | 110% | 120% | 113% | 113% | 106% | 111% | 109% | 64.9% | 9.59% | 10.4% | 117% | 112% | 104% | 118% | 120% | 111% | 117% | 116% | 114% | 13.3% | 12% | 113% | 117% | 120% | 112% | 111% | 110% | 112% | 118% | 108% | 23.7% | 23.2% |
| Cc1cc(-c2nnc3n2CCCCC3)c(C)n1-c1ccccc1 | 120% | 117% | 122% | 119% | 118% | 116% | 118% | 117% | 115% | 117% | 104% |  |  |  |  |  |  |  |  |  |  |  | 125% | 119% | 118% | 125% | 118% | 119% | 124% | 126% | 122% | 109% | 111% |
